Residues, ends and D or L forms follow the SMILES beside them. *: point of attachment. Acetyl(1,8-naphthalimido) = O=C1c2cccc3cccc(c23)C(=O)N1CC(=O)*

The results in this text go back to US10222381B2, “Water-soluble peptide fluorescence material” (NATIONAL CHIAO TUNG UNIVERSITY, priority 2015, dated 2019).

Series [1] is described as follows: Fluorescence in co-solvents of glycerol and methanol (aggregation-induced emission). The format is physicochemical. From the text: Continuing in FIG. 6, which illustrates a fluorescence intensity and an emission wavelength of the water-soluble peptide fluorescence material of formula (III-14) in co-solvents having different proportions of glycerol and methanol. In Experimental Example 601, 602, 603, 604, 605, 606, 607, 608, 609 and 610, methanol respectively has 0, 10, 20, 30, 40, 50, 60, 70, 80 and 90% of a total volume of the co-solvent. […] Given the above, the fluorescence intensity of the water-soluble peptide fluorescence material of formula (III-14) is increased corresponding to the increase of the volume ratio of methanol, so the water-soluble peptide fluorescence material of formula (III-14) also has a phenomenon of aggregation-induced emission (AIE) in methanol. In addition, the water-soluble peptide fluorescence material of formula (III-14) has the emission wavelength of about 550 nm, so the observed fluorescence has a color of green.

Series [2] can be described thus: Fluorescence in co-solvents of water and dimethyl sulfoxide (aggregation-induced emission). The format is physicochemical. From the text:
Continuing in FIG. 4, which illustrates a fluorescence intensity and an emission wavelength of the water-soluble peptide fluorescence material of formula (III-1) in co-solvents having different proportions of water and dimethyl sulfoxide. In Experimental Example 401, 402, 403, 404, 405, 406, 407, 408, 409, 410 and 411, water respectively has 0, 10, 20, 30, 40, 50, 60, 70, 80, 90 and 100% of a total volume of the co-solvent. […] As such, no significant fluorescence marker is shown, so it is difficult to observe apparent fluorescence visually. […] Given the above, the fluorescence intensity of the water-soluble peptide fluorescence material of formula (III-1) is increased corresponding to the increase of the volume ratio of water, which is also referred as aggregation-induced emission (AIE). In addition, the water-soluble peptide fluorescence material of formula (III-1) has the emission wavelength of about 400 nm, so the observed fluorescence has a color of blue violet.
Continuing in FIG. 9, which illustrates a fluorescence intensity and an emission wavelength of the water-soluble peptide fluorescence material of formula (III-23) in co-solvents having different proportions of water and dimethyl sulfoxide. In Experimental Examples 901, 902, 903, 904, 905, 906, 907, 908, 909 and 910, water respectively has 0, 10, 20, 30, 40, 50, 60, 70, 80 and 90% of a total volume of the co-solvent. […] Given the above, the fluorescence intensity of the water-soluble peptide fluorescence material of formula (III-23) is increased corresponding to the increase of the volume ratio of water and has a phenomenon of aggregation-induced emission in water. In addition, the water-soluble peptide fluorescence material of formula (III-23) has the emission wavelength of about 550 nm, so the observed fluorescence has a color of green.
FIG. 12 illustrates a fluorescence intensity and an emission wavelength of the water-soluble peptide fluorescence material of formula (III-28) in co-solvents having different proportions of water and dimethyl sulfoxide. In Experimental Example 1201, 1202, 1203, 1204, 1205, 1206, 1207, 1208, 1209, 1210 and 1211, water respectively has 0, 10, 20, 30, 40, 50, 60, 70, 80, 90 and 99% of a total volume of the co-solvent. […] As such, no significant fluorescence marker is shown, so it is difficult to observe apparent fluorescence visually. […] Given the above, the fluorescence intensity of the water-soluble peptide fluorescence material of formula (III-28) is increased corresponding to the increase of the volume ratio of water and has a phenomenon of aggregation-induced emission in water. In addition, the water-soluble peptide fluorescence material of formula (III-28) has the emission wavelength of about 400 nm, so the observed fluorescence has a color of violet. FIG. 13 depicts a ratio of the fluorescence intensity between Experimental Examples 1202 to 1211 and Experimental Example 1201, at the emission wavelength of 400 nm.
FIG. 15 illustrates a fluorescence intensity and an emission wavelength of the water-soluble peptide fluorescence material of formula (III-30) in co-solvents having different proportions of water and dimethyl sulfoxide. In Experimental Example 1501, 1502, 1503, 1504, 1505, 1506, 1507, 1508, 1509, 1510 and 1511, water respectively has 0, 10, 20, 30, 40, 50, 60, 70, 80, 90 and 100% of a total volume of the co-solvent. […] As such, no significant fluorescence marker is shown, so it is difficult to observe apparent fluorescence visually. […] Accordingly, the fluorescence intensity of the water-soluble peptide fluorescence material of formula (III-30) is increased corresponding to the increase of the volume ratio of water and has a phenomenon of aggregation-induced emission in water. In addition, the water-soluble peptide fluorescence material of formula (III-30) has the emission wavelength of about 400 to 425 nm, so the observed fluorescence has a color of blue violet. […]

A short description of series [3]: Fluorescence intensity and emission wavelength at different pH values. The format is physicochemical. From the text:
In Experimental Examples 210, 220, 230, 240, 250, 260, 270 and 280, the above water-soluble peptide fluorescence material is respectively placed in environments having a pH value of 10, 9, 8, 7, 6, 5, 4 and 3 for testing. In Experimental Examples 210 to 230, the water-soluble peptide fluorescence material is respectively placed in environments having the pH value of 10, 9 and 8.
Continuing in FIG. 5, which illustrates a fluorescence intensity and an emission wavelength of the water-soluble peptide fluorescence material of formula (III-10) at different pH values. In Experimental Examples 510, 520, 530, 540, 550, 560, 570 and 580, the water-soluble peptide fluorescence material of formula (III-10) is respectively placed in environments having a pH value of 10, 9, 8, 7, 6, 5, 4 and 3 for testing. In Experimental Examples 510 to 560, the water-soluble peptide fluorescence material is placed in environments having the pH value of 10 to 5, and two emission peaks are shown in FIG. 5. […] Then, the pH value is further decrease to 4 (Experimental Example 570) and 3 (Experimental Example 580), and only the emission peak at about 400 nm is remained, so the observed fluorescence has a color of purple in Experimental Examples 570 and 580. Therefore, the water-soluble peptide fluorescence material of formula (III-10) is able to detect and mark locations of acidic cells by change of the color.
Continuing in FIG. 7, which illustrates a fluorescence intensity and an emission wavelength of the water-soluble peptide fluorescence material of formula (III-21) at different pH values. In Experimental Examples 710, 720, 730, 740, 750, 760, 770 and 780, the water-soluble peptide fluorescence material of formula (III-21) is respectively placed in environments having a pH value of 10, 9, 8, 7, 6, 5, 4 and 3 for testing. In Experimental Examples 710 to 750, the water-soluble peptide fluorescence material is placed in environments having the pH value of 10 to 6. […] However, the fluorescence intensity of Experimental Examples 780 is decreased when the pH value is decreased from 4 to 3.
Continuing in FIG. 8, which illustrates a fluorescence intensity and an emission wavelength of the water-soluble peptide fluorescence material of formula (III-22) at different pH values. In Experimental Examples 810, 820, 830, 840, 850, 860, 870 and 880, the water-soluble peptide fluorescence material of formula (III-22) is respectively placed in environments having a pH value of 10, 9, 8, 7, 6, 5, 4 and 3 for testing. In Experimental Examples 810 to 850, the water-soluble peptide fluorescence material is respectively placed in environments having the pH value of 10 to 6. […] In addition, the fluorescence intensity of Experimental Example 860 (pH=5) is 90 times of the fluorescence intensity of Experimental Example 810 […], which represents that the water-soluble peptide fluorescence material has obvious light-emitting interval and easily to identify and detect positions of the acidic cells.
FIG. 10 illustrates a fluorescence intensity and an emission wavelength of the water-soluble peptide fluorescence material of formula (III-23) at different pH values. In Experimental Examples 1010, 1020, 1030, 1040, 1050, 1060, 1070 and 1080, the water-soluble peptide fluorescence material of formula (III-23) is respectively placed in environments having a pH value of 10, 9, 8, 7, 6, 5, 4 and 3 for testing. In Experimental Examples 1010 to 1050, the water-soluble peptide fluorescence material is respectively placed in environments having the pH value of 10 to 6. […] The water-soluble peptide fluorescence material not only provides obvious marker, but also achieves the same effect of the fluorescence at a low concentration, and thereby reduces the costs.
FIG. 11 illustrates a fluorescence intensity and an emission wavelength of the water-soluble peptide fluorescence material of formula (III-27) at different pH values. […]

In series [4] the test system is acidic cells in living cells. Description: Fluorescence marking of acidic cells in living cells, compared with Lysotracker. Particulars: living cells, FIGS. 1A/1B. The format is cell-based. From the text:
The water-soluble peptide fluorescence material is designed to illuminate in acid, neutral or weak base environment, and following embodiments give an example illuminating in acid environment. FIGS. 1A, 1B and 1C are comparative pictures between a water-soluble peptide fluorescence material of the present disclosure and a traditional fluorescence material at the same concentration. The water-soluble peptide fluorescence material has a structure of following formula including a peptide sequence Phe-Asp-Gly-Glu-Ala (SEQ ID NO: 5):
Continuing in FIG. 1B to compare with FIG. 1A, FIG. 1B uses the water-soluble peptide fluorescence material of the present disclosure, which is also used to mark acidic cells in living cells. […] Accordingly, the water-soluble peptide fluorescence material is suitable for a biological fluorescence probe, so as to detect and mark positions of the acidic cells.
At the same concentration, the water-soluble peptide fluorescence material has the greater fluorescence intensity than that of Lysotracker. On this base, a dose of the water-soluble peptide fluorescence material could be decreased to achieve the same fluorescence intensity with the Lysotracker, so as to decrease medical costs and damage to human bodies.

[5] abbreviates: water/dimethyl sulfoxide co-solvent.

As to `O=C(CN1C(=O)c2cccc3c(N4CCCCC4)ccc(c23)C1=O)NC(Cc1ccccc1)C(=O)NC(Cc1ccccc1)C(=O)O` (centres unmarked) [III-14], the “fluorescence intensity with increase of the volume ratio of methanol” value in series [1] (aggregation-induced emission) is listed as “increased”. Moreover, in series [1] (glycerol/methanol co-solvent), the “color of observed fluorescence” value is on record as “green” and the emission wavelength entry is given as “about 550 nm”. The fluorescence intensity result in series [1] (methanol 90% (Experimental Example 610), methanol 0 to 90% tested) is recorded as “largest fluorescence intensity”.
As to `C[C@H](NC(=O)[C@H](CCC(=O)O)NC(=O)CNC(=O)[C@H](CC(=O)O)NC(=O)[C@H](Cc1ccccc1)NC(=O)CN1C(=O)c2cccc3cccc(c23)C1=O)C(=O)O` [III-28] ({Acetyl(1,8-naphthalimido)}-FDGEA-OH), in series [2] (aggregation-induced emission), the “fluorescence intensity with increase of the volume ratio of water” value was “increased”. For the same molecule, the “ratio of fluorescence intensity Experimental Example 1211 (99% water) to 1201 (0% water)” value in series [2] (emission wavelength of 400 nm) amounted to 225 times. For the same molecule, the fluorescence intensity entry is “low fluorescence intensity” in series [2] (water 0 to 80%), 150 fluorescent units in series [2] (water 90%), “about 110 fluorescent units” in series [2] (water 99%) and “low fluorescence intensities” in series [3] (pH 10 to 6). In addition, in series [2] (setting [5]), the “color of observed fluorescence” value is recorded as “violet”. Moreover, in series [2] (setting [5]), the emission wavelength entry was “about 400 nm”. Also, in series [3] (pH 5), the color of fluorescence entry is “purple”. The emission peak result in series [3] (pH 5) is given as “about 400 nm”. For the same molecule, the “change of fluorescence intensity” value in series [3] (pH decreased to 4 and 3) is listed as “significantly increased”; in series [3] (pH decreased to 5), “significantly increased”.
On to `CN(C)CCNC(=O)CCc1ccc2n1[B-](F)(F)[N+]1=C(c3ccc[nH]3)C=CC1=C2` [Lysotracker, reference compound], for which the “fluorescence appearing at the acidic cells” value in series [4] is reported as “red fluorescence”.
